Test results published in US9701638B2, “Therapeutic hydroxyquinolones” (RUTGERS, THE STATE UNIVERSITY OF NEW JERSEY, priority 2012, dated 2017).

What follows are molecules tested against Pandemic 2009 H1N1 influenza A endonuclease (PAN domain, residues 1-204) (Influenza A virus (strain swl A/California/04/2009 H1N1), UniProt C3W5S0) (assay: Endonuclease assay (FAM/MGBNFQ fluorescent probe cleavage by PAN)). Conditions: endonuclease inhibition; 25 nM endonuclease, 50 nM probe, 37 degrees Celsius, fluorescence change over time.
Format: biochemical, influenza A virus (pandemic 2009 H1N1)
Excerpt: A TaqMan-like oligonucleotide was used containing a 6-carboxy-fluorescein (FAM) fluorophore at the 5′-end followed by 19 nucleotides and a minor groove binding non-fluorescent quencher (MGBNFQ, Applied Biosystems) at the 3′-end. When excited by light at a wavelength of 488 nm, MGBNFQ quenches the fluorescence of FAM via fluorescence resonance energy transfer. If the endonuclease cleaves the oligonucleotide, the quencher is no longer coupled to the fluorophore, and therefore, FAM fluoresces. This assay can be performed in a high-throughput (e.g. 96 well plate) format.
The reaction mixture is set up as a master mix with the buffer, probe, and protein on ice. […] Varioskan Fluorometer (Thermo Scientific), set to an excitation of 488 nm and emission of 518 nm, is used to measure the fluorescence of the samples at 37 degrees Celsius. Fluorescence is measured at various time points (5, 120, and 240 minutes) during the 37 degrees Celsius incubation. Activity/inhibition is calculated based on the change in fluorescence over time using Prism Graphpad non-linear regression analysis.

Row | SMILES | IC50 [µM]
1 | O=c1[nH]c2ccccc2c(Br)c1O [Example 2, 4-bromo-3-hydroxyquinolin-2(1H)-one] | 53
2 | O=c1[nH]c2cccc(Br)c2cc1O [Example 3, 5-bromo-3-hydroxyquinolin-2(1H)-one] | 12.2
3 | O=c1[nH]c2ccc(Br)cc2cc1O [Example 4, 6-bromo-3-hydroxyquinolin-2(1H)-one] | 7.4
4 | O=c1[nH]c2cc(Br)ccc2cc1O [Example 5, 7-bromo-3-hydroxyquinolin-2(1H)-one] | 7.6
5 | O=c1[nH]c2c(Br)cccc2cc1O [Example 6, 8-bromo-3-hydroxyquinolin-2(1H)-one] | 10.6
6 | O=c1[nH]c2ccccc2c(-c2ccc(F)cc2)c1O [Example 7] | 10.8
7 | O=c1[nH]c2cccc(-c3ccc(F)cc3)c2cc1O [Example 8, 5-(4-fluorophenyl)-3-hydroxyquinolin-2(1H)-one] | 3.3
8 | O=c1[nH]c2ccc(-c3ccc(F)cc3)cc2cc1O [Example 9, 6-(4-fluorophenyl)-3-hydroxyquinolin-2(1H)-one] | 0.56
9 | O=c1[nH]c2cc(-c3ccc(F)cc3)ccc2cc1O [Example 10, 7-(4-fluorophenyl)-3-hydroxyquinolin-2(1H)-one] | 0.56
10 | O=c1[nH]c2c(-c3ccc(F)cc3)cccc2cc1O [Example 11, 8-(4-fluorophenyl)-3-hydroxyquinolin-2(1H)-one] | 4.7
11 | O=c1[nH]c2cc(-c3ccc(F)cc3)ccc2c(Br)c1O [Example 12, 4-bromo-7-(4-fluorophenyl)-3-hydroxyquinolin-2(1H)-one] | 1.1
12 | O=c1[nH]c2ccccc2c(-c2ccccc2)c1O [Example 13, 4-Phenyl-3-hydroxyquinolin-2(1H)-one] | > 20
13 | Cc1c(O)c(=O)[nH]c2ccccc12 [Example 14, 4-Methyl-3-hydroxyquinolin-2(1H)— one] | > 100
14 | O=c1[nH]c2cc(-c3ccc(F)cc3)ccc2c(-c2ccccc2)c1O [Example 15, 4-Phenyl-7-(4-fluorophenyl)-3-hydroxyquinolin-2(1H)-one] | 2
15 | Cc1c(O)c(=O)[nH]c2cc(-c3ccc(F)cc3)ccc12 [Example 16] | 13.2
